# Tests used:
# Type in all cases: in vivo
# Plutella xylostella = assay: Insecticidal activities to diamondback moth, feeding dipped leaves; conditions: for mortality at 500 ppm: Plutella xylostella, feeding dipped leaves, counted after 24 hours, read-out: Plutella xylostella Mortality (%) 500 ppm; for Plutella xylostella Mortality (%) 500 ppm: in vivo
# Procedure: (§1) Mortality (%)=(the number of the survival aphis in control group−the number of the survival aphis in the treatment group)/the number of the survival aphis in control group×100%
# (4): Insecticidal Activities to Diamondback Moth
# Diamondback moth (Plutella xylostella) was tested by the way of feeding dippedleaves. Fresh cabbage leaves were immersed in above mentioned solution for 3 seconds, dried at room temperature, and fed to the tested insects. Each treatment was tested with 10 insects and repeated for 3 tumblers (3 times), while water was used as control. The number of killed insects was counted after 24 hours to calculate the mortality according to the above mentioned formula.
# Aphis craccivoral = assay: Insecticidal activities to aphids, immersion method; conditions: for mortality at 500 ppm: Aphis, immersion method, read-out: Aphis craccivoral Mortality (%) 500 ppm; for Aphis craccivoral Mortality (%) 500 ppm: in vivo
# In short: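 Wingless adult aphids feeding on bean sprouts were dipped 5 s in 500 ppm compound (DMF stock diluted in 0.2 mL/L aqueous Triton X-100), blotted and held at 23° C. Dead counted at 24 h, three replicates; mortality corrected against Triton-only controls.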
# [1] = test system: Pseudaletia separate Walker; assay: Insecticidal activities to armyworm, leaf dipping and feeding
# Procedure: as §1
# (3): Insecticidal Activities to Armyworm
# Armyworm (Pseudaletia separate Walker) was tested by the way of leaf dipping and feeding. The test compound was exactly formulated with acetone into solutions having concentrations of 500, 250, 100, 50, 25, 12.5, 6.25, 3.13 and 1.57 ppm, respectively. Aqueous acetone solution was used as control. Fresh maize leaves were immersed in the solution for 3 seconds, dried at room temperature, and fed to the tested insects. Each treatment was tested with 10 insects and repeated for 3 tumblers (3 times). The number of killed insects was counted after 24 hours to calculate the mortality according to the above mentioned formula.
# Nilaparvata lugens = assay: Insecticidal activities to plant hopper, spraying method; conditions: for mortality at 500 ppm: Nilaparvata lugens, spraying method, counted after 24 hours, read-out: Nilaparvata lugens Mortality (%) 500 ppm; for Nilaparvata lugens Mortality (%) 500 ppm: in vivo
# In short: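 Nilaparvata lugens, 10 insects per tumbler, sprayed with 2 ml compound in acetone at 0.79-500 ppm, three replicates, aqueous acetone control. Dead insects counted after 24 h; mortality corrected against control survival.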
# [2] = 500 ppm, leaf dipping and feeding, counted after 24 hours
Structure (SMILES),mortality at 500 ppm (Plutella xylostella),mortality at 500 ppm (Aphis craccivoral),"Pseudaletia separate Walker Mortality (%) 500 ppm [1, 2]",mortality at 500 ppm (Nilaparvata lugens),Plutella xylostella Mortality (%) 500 ppm (Plutella xylostella),Aphis craccivoral Mortality (%) 500 ppm (Aphis craccivoral),Pseudaletia separate Walker Mortality (%) 500 ppm ([1]; in vivo),Nilaparvata lugens Mortality (%) 500 ppm (Nilaparvata lugens)
"O=[N+]([O-])/C(=C/c1ccoc1)C1=NCCN1Cc1ccc(Cl)nc1 [Compound 2, 2-chloro-5-((2-(2-(furan-3-yl)-1-nitrovinyl)-4,5-dihydro-imidazol-1-yl)-methyl) pyridine]",100%,100%,100%,100%,–,–,–,–
O=[N+]([O-])C(=Cc1oc(Cl)cc1Cl)C1=NCCN1Cc1ccc(Cl)nc1 [Compound 9],–,–,–,–,100%,100%,100%,100%
CCc1ccc(C=C(C2=NCCCN2Cc2ccc(Cl)nc2)[N+](=O)[O-])o1 [Compound 59],–,–,–,–,100%,57%,86%,84%
Cc1ccc(C=C(C2=NCCN2Cc2cnc(Cl)s2)[N+](=O)[O-])o1 [Compound 79],–,–,–,–,100%,100%,100%,100%
O=[N+]([O-])C(=Cc1ccsc1)C1=NCCN1Cc1cnc(Cl)s1 [Compound 84],–,–,–,–,100%,100%,100%,100%
CC(c1ccc(Cl)nc1)N1CCN=C1C(=Cc1ccsc1)[N+](=O)[O-] (racemic) [Compound 128],–,–,–,–,100%,100%,100%,100%
CC[N+]1=C(C(=Cc2ccc([N+](=O)[O-])s2)[N+](=O)[O-])N(Cc2ccc(Cl)nc2)CC1.[Cl-] [Compound 293],–,–,–,–,100%,100%,100%,100%
C[N+]1=C(C(=Cc2cc(Cl)cs2)[N+](=O)[O-])N(Cc2ccc(Cl)nc2)CC1.[Cl-] [Compound 264],–,–,–,–,100%,100%,100%,100%
O=[N+]([O-])C(=Cc1oc(Br)cc1Br)C1=NCCCN1Cc1ccc(Cl)nc1 [Compound 56],–,–,–,–,100%,100%,100%,100%
CC(c1ccc(Cl)nc1)N1CCN=C1C(=Cc1ccc[nH]1)[N+](=O)[O-] (racemic) [Compound 131],–,–,–,–,63%,100%,100%,100%
CC(=C(C1=NCCN1C(C)c1ccc(Cl)nc1)[N+](=O)[O-])c1ccc(Br)o1 (racemic) [Compound 137],–,–,–,–,100%,98%,100%,100%
C[N+]1=C(C(=Cc2ccc(Cl)s2)[N+](=O)[O-])N(Cc2ccc(Cl)nc2)CC1.[Cl-] [Compound 262],–,–,–,–,100%,100%,100%,100%
N#CC(=Cc1ccsc1)C1=NCCN1Cc1ccc(Cl)nc1 [Compound 147],–,–,–,–,100%,100%,100%,100%
O=[N+]([O-])C(=Cc1oc(Br)cc1Br)C1=NCCN1Cc1ccc(Cl)nc1 [Compound 11],–,–,–,–,100%,100%,100%,100%
O=[N+]([O-])C(=Cc1cc(Cl)co1)C1=NCCN1Cc1ccccc1 [Compound 106],–,–,–,–,75%,91%,59%,87%
CC(=C(C1=NCCN1C(C)c1ccc(Cl)nc1)[N+](=O)[O-])c1cccs1 (racemic) [Compound 138],–,–,–,–,100%,100%,100%,100%

Structure (SMILES),mortality at 500 ppm (Plutella xylostella),mortality at 500 ppm (Aphis craccivoral),"Pseudaletia separate Walker Mortality (%) 500 ppm [1, 2]",mortality at 500 ppm (Nilaparvata lugens),Plutella xylostella Mortality (%) 500 ppm (Plutella xylostella),Aphis craccivoral Mortality (%) 500 ppm (Aphis craccivoral),Pseudaletia separate Walker Mortality (%) 500 ppm ([1]; in vivo),Nilaparvata lugens Mortality (%) 500 ppm (Nilaparvata lugens)
C[N+]1=C(C(=Cc2ccsc2)[N+](=O)[O-])N(Cc2cnc(Cl)s2)CC1.[Cl-] [Compound 281],–,–,–,–,100%,100%,100%,100%
N#CC(=Cc1cc(Br)c(Br)o1)C1=NCCN1Cc1ccc(Cl)nc1 [Compound 144],–,–,–,–,100%,87%,90%,100%
CC(c1ccc(Cl)nc1)N1CCN=C1C(=Cc1ccc([N+](=O)[O-])o1)[N+](=O)[O-] (racemic) [Compound 124],–,–,–,–,100%,100%,100%,100%
C[N+]1=C(C(=Cc2oc(Br)cc2Br)[N+](=O)[O-])N(Cc2ccc(Cl)nc2)CC1.[Cl-] [Compound 254],–,–,–,–,100%,100%,100%,100%
C[N+]1=C(C(=Cc2ccc(Cl)s2)[N+](=O)[O-])N(Cc2cnc(Cl)s2)CC1.[Cl-] [Compound 283],–,–,–,–,100%,100%,100%,100%
CCc1ccc(C=C(C2=NCCN2Cc2ccc(Cl)nc2)[N+](=O)[O-])o1 [Compound 14],–,–,–,–,100%,100%,100%,100%
O=[N+]([O-])C(=Cc1cccnc1)C1=NCCN1Cc1ccc(Cl)nc1 [Compound 38],–,–,–,–,87%,97%,95%,100%
C[N+]1=C(C(=Cc2ccoc2)[N+](=O)[O-])N(Cc2ccc(Cl)nc2)CC1.[Cl-] [Compound 245],–,–,–,–,100%,100%,100%,100%
C[N+]1=C(C(=Cc2oc(Cl)cc2Cl)[N+](=O)[O-])N(Cc2ccc(Cl)nc2)CC1.[Cl-] [Compound 252],–,–,–,–,100%,100%,100%,100%
O=[N+]([O-])C(=Cc1ccc(Cl)s1)C1=NCCCN1Cc1ccc(Cl)nc1 [Compound 64],–,–,–,–,100%,100%,100%,100%
Cc1ccc(C=C(C2=[N+](C)CCN2Cc2ccc(Cl)nc2)[N+](=O)[O-])s1.[Cl-] [Compound 270],–,–,–,–,100%,100%,100%,100%
O=[N+]([O-])C(=Cc1cc(Br)co1)C1=NCCN1CC1CCOC1 (stereo not shown) [Compound 97],–,–,–,–,86%,76%,90%,88%
CCc1ccc(C=C(C2=NCCN2Cc2cnc(Cl)s2)[N+](=O)[O-])o1 [Compound 81],–,–,–,–,100%,100%,100%,100%
O=[N+]([O-])C(=Cc1oc(Cl)cc1Cl)C1=NCCCN1Cc1ccc(Cl)nc1 [Compound 54],–,–,–,–,100%,100%,100%,100%
"O=[N+]([O-])/C(=C/c1cccs1)C1=NCCN1Cc1ccc(Cl)nc1 [Compound 16, 2-chloro-5-((2-(1-nitro-2-(thiophen-2-yl)vinyl)-4,5-dihydro-imidazol-1-yl)-methyl)pyridine]",100%,100%,100%,100%,–,–,–,–
